Reference: patent US11883422B2, “Glycan therapeutic compositions and related methods thereof” (DSM Nutritional Products, LLC, priority 2015, dated 2024)

System: colonic propulsion in morphine-treated mice
Assay: Mouse model of opioid-induced constipation: colonic propulsion (bead expulsion) after morphine
Assay type: in vivo
Protocol: This study was conducted to analyze the effects of glycan therapeutics in a mouse model of opioid-induced constipation. In this model, normal mice are dosed with glycan or control for several days and then administered a dose of morphine sufficient to produce decreased gastrointestinal (GI) transit and colonic propulsion (Coates et al. 2006 Neurogastroenterol Motil 18:464-471). In humans, morphine and related opiate drugs are known to cause constipation. They act on neurons in the myenteric plexus as mu-opioid receptor agonists, leading to decreased GI motility and propulsion. The proportion of the US adult population who take opiates chronically (non-cancer patients), is roughly 4%. In an observational study of patients on opiates for chronic pain, 47% experienced constipation (Tuteja et al. […] Neurogastroenterol Motil 22: 424-430). There is evidence that chronic constipation can predispose individuals to benign GI neoplasms and colorectal cancer. […]
Several drug toxicities affecting GI motility (e.g. causing constipation or diarrhea) in cancer are also related to or associated with other immune imbalances and nutritional imbalances. […] Colonic propulsion was assessed as follows: thirty minutes post morphine dosing, a 3 mm glass bead was inserted at a depth of 2 cm into the distal colon through each mouse's anus. […]

C=CCN1CC[C@]23c4c5ccc(O)c4O[C@H]2C(=O)CC[C@@]3(O)[C@H]1C5 [naloxone]
responders (reduction in expulsion of >25% of maximum expulsion time, 1350 seconds) (1% in drinking water for 11 days (naloxone 30 minutes prior to morphine), morphine 3 mg/kg subcutaneously): 6/8
effect in this mouse model of colonic propulsion (third analysis, responder versus non-responder animals, cutoff 1800 seconds): reversing the effects of morphine
